Assay results: article PMC11742080, “Decavanadate Compound Displays In Vitro and In Vivo Antitumor Effect on Melanoma Models” (Bioinorganic Chemistry and Applications, 2025)

How the values were obtained:
[1] = system: HaCaT normal human keratinocytes; assay: MTT cell viability assay, HaCaT; format: cell-based
Description: (§1) The MTT assay was first described as a sensitive, quantitative, and reliable colorimetric assay to measure the viability, proliferation, and activation of cells. Cell viability was assessed at 24 and 72 h of treatment to evaluate cytotoxicity and the effect on cell proliferation of the decavanadate compound, respectively. The concentrations of the decavanadate compound have been determined by weighing the compound in its crystal form and then solubilizing it in distilled water.
(§2) All cell lines were seeded in 96-well plates (Nunc, Roskilde, Denmark) at a density of 10^4 cells per well and were incubated overnight, before treatment with different concentrations of the decavanadate compound. After 24 or 72 h of treatment, fresh media solution containing MTT at 0.5 mg/mL was added to cells and incubated for 3 h at 37°C. The formed formazan crystals were then dissolved in DMSO, and the absorbance was measured at 560 nm using a BioTek EON Microplate Spectrophotometer (Fisher Scientific). Cell viability was expressed as a percentage of the viable cell number of the untreated cells (control [CTR]).
(§3) The concentration of the decavanadate compound required for 50% growth inhibition (IC50 value) was estimated as resulting in a 50% decrease in absorbance, compared to the CTR.

[2] = system: IGR39 human melanoma cells; assay: MTT cell viability assay, IGR39; format: cell-based
Description: as §1, §2, §3

[3] = system: B16-F10 allografted C57BL/6 mice; assay: B16-F10 melanoma allograft model in mice; format: in vivo
Description: The syngeneic transplantation model of melanoma, developed in this study, has been widely used for preclinical testing and offers the advantages of relative ease of use, fast turnaround time, and low cost. A total of 30 male C57BL/6 strain mice were previously adapted to animal facility conditions. The design of the experiment was performed as represented in Figure S2. At the start of the experiment, the backs of the mice were shaved. The mice were divided into four groups: • i. CTR− group: negative CTR group containing 6 mice. This group was injected with a solution of PBS by the subcutaneous route in the dorsal region. • ii. CTR+ group: positive CTR group containing 8 mice. In this group, the mice were subcutaneously injected once with 10^5 B16-F10 cells in the dorsal region at the beginning of the experiment. Four mice were sacrificed after 21 days, and the other 4 mice were sacrificed at the end of the experiment after 31 days. • iii. Cotreatment (CT) group: CT group containing 8 mice. This group was subcutaneously injected with 10^5 B16-F10 cells in the dorsal region and injected simultaneously with 2.5 mg/kg of decavanadate (Mg2Na2V10O28·20H2O), subcutaneously for 21 days of the experiment. All the mice were sacrificed after 21 days. • iv. Post-treatment (PT) group: PT group containing 8 mice. This group was subcutaneously injected with 10^5 B16-F10 cells in the dorsal region. After 21 days, each mouse of this group received a dose of 2.5 mg/kg of decavanadate (Mg2Na2V10O28·20H2O), as a treatment for 10 days. For this group, animals were sacrificed on the 31st day. The experimental design scheme is illustrated in Figure S2.

[4] = system: SKMEL28 human melanoma cells; assay: MTT cell viability assay, SKMEL28; format: cell-based
Description: as §1, §2, §3

[5] = system: IGR37 human melanoma cells; assay: MTT cell viability assay, IGR37; format: cell-based
Description: as §1, §2, §3

[6] = system: B16-F10 murine melanoma cells; assay: MTT cell viability assay, B16-F10; format: cell-based
Description: as §1, §2, §3

[7] = system: IGR39 human melanoma cells; assay: Wound healing (scratch) cell migration assay; format: cell-based; details: 24 h treatment
Description: Wound healing (or scratch) assay is a method to measure two-dimensional cell migration. An artificial gap is generated on a confluent cell monolayer, and the movement is tracked via microscopy or other imaging. Melanoma cells were seeded in 24-well plates at 15 × 10^4 cells per well and incubated for 24–48 h. After cells reached 90% confluence, wounds were generated using a 10 μL micropipette tip. Media were removed, and the cells were washed with 500 μL PBS and then incubated in a fresh medium containing different concentrations (not showing cytotoxic effect) of the decavanadate compound. After 24 h of treatment, cells were washed with PBS, fixed with cold ethanol, and stained with Giemsa. Images were acquired on an inverted microscope at T0 and after 24 h (T24). The percentage of cell migration was calculated using the following formula: cell migration(%)=[(T0 − T24))/(T0)] × 100 where T0 is the wound area at zero time and T24 is the wound area after 24 h. All the pictures were taken with a DM-IRE microscope (Leica, Rueil-Malmaison, France) coupled with a digital camera (CCD camera CoolSNAP FX, Princeton Instruments, Trenton, NJ).

[8] = Stability of the stock solution (activity retained); format: physicochemical; details: 1 mg/mL stock kept at +4°C, experiments repeated after 2 months
Description: Four cutaneous melanoma cell lines IGR39, IGR37, SKMEL28, and B16-F10 were treated with increasing concentrations of the decavanadate compound (Figure 3). A stock solution was prepared at a concentration of 1 mg/mL and kept at a temperature of +4°C. The dilutions were made just before the treatment. Figures 3(a) and 3(b) show the dose–response effect of Mg2Na2V10O28·20H2O compound on the viability of different melanoma cell lines, after 24 and 72 h of treatments, respectively.

[9] = system: IGR39 human melanoma cells; assay: Cell adhesion assay (collagen, fibronectin, poly-L-lysine); format: cell-based
Description: Adhesion assays were performed as previously described by Morjen et al.. Briefly, flat-bottom 96-well microtiter plates were coated for 2 h at 37°C with fibronectin or collagen at 10 μg/mL, as extracellular matrix (ECM) proteins, or poly-L-lysine at 50 μg/mL, as a nonspecific attachment substrate. Plates were then washed with PBS and blocked by BSA. IGR39 cells were harvested and resuspended in DMEM, in the presence or absence (CTR) of the tested molecule. After incubation for 30 min at room temperature, cells were added to coated wells in a volume of 50 μL (50,000 cells) and allowed to adhere to the substrate for 1 h at 37°C. Unattached cells were removed by gently washing three times with an adhesion buffer. Residual attached cells were fixed by 1% glutaraldehyde, stained by 0.1% crystal violet, and lysed with 1% SDS. The absorbance was then measured at 600 nm by a microplate reader.

## dimagnesium disodium decavanadate icosahydrate [Mg2Na2V10O28·20H2O]
[1]; 24 h treatment
  Effect on viability of normal keratinocytes: little effect
[1]; 24 h treatment, MTT
  IC50: > 70.8 µM
[1]; 72 h treatment, MTT
  IC50: 8.9 µM
  IC50, cell viability: 12.7 µg/mL
[2]; IGR39, 24 h treatment
  IC50: 18 µM
[2]; IGR39, 72 h treatment
  IC50: 5.2 µM
[3]; 2.5 mg/kg (50 μg), versus nontreated allografted mice
  Inhibition of tumor development: 70%
[3]; cotreated, 2.5 mg/kg, compared to CTR− group
  Behavior of allografted mice: no change in the behavior
[3]; cotreatment (CT) group, 2.5 mg/kg s.c. for 21 days
  Tumor appearance at day 21: no skin changes
[3]; cotreatment (CT) group, 2.5 mg/kg, day 21
  Skin histology, cotreated mice: disappearance of melanoma
[3]; post-treatment (PT) group, 2.5 mg/kg for 10 days from day 21, day 31
  Average size of the tumor: 8.2 mm
[3]; post-treatment (PT) group, 2.5 mg/kg, day 31
  Skin histology, post-treated mice: appearance of dermal melanoma associated with invasive nests of atypical discohesive melanocytes and dusty pigmentation
[4]; SKMEL28, 24 h treatment
  IC50: 10.8 µM
[4]; SKMEL28, 72 h treatment
  IC50: 4.1 µM
[5]; IGR37, 24 h treatment
  IC50: 12.7 µM
[5]; IGR37, 72 h treatment
  IC50: 1.4 µM
  IC50, cell viability: 2 µg/mL
[6]; B16-F10, 24 h treatment
  IC50: 7.3 µM
[6]; B16-F10, 72 h treatment
  IC50: 2.8 µM
[7]
  IC50: 2.23 µM
  IC50, IGR39 cell migration: 3.16 µg/mL
[8]
  Stability of stock solution: the compound is stable
[9]; 5 μg/mL
  Inhibition of adhesion of IGR39 cells on fibronectin: 47%
[9]; collagen 10 μg/mL coating, 30 min pretreatment, 1 h adhesion
  IC50, IGR39 cell attachment to collagen: 3.78 µg/mL
[9]; collagen 10 μg/mL coating, 30 min pretreatment, 1 h adhesion, read-out: IC50, IGR39 cell attachment to collagen
  IC50: 2.67 µM
[9]; highest concentration 5 μg/mL (3.5 μM)
  Reduction of IGR39 cell attachment to collagen: 60%
[9]; up to 5 μg/mL, nonspecific substrate
  Effect on adhesion of IGR39 cells to poly-L-lysine: no effect
